Measured values taken from paper PMC11547840, “The Intestinal Barrier Protective Effect of Indole Aldehyde Derivatives on Acute Toxoplasma gondii Infection” (Molecules, 2024).
“Also recorded” adds a separate entry of the source. Read-outs that look alike come from different tables or passages of the source.

What was measured:
T. gondii [1] = test: MTT anti-T. gondii activity in T. gondii-infected IEC-6 cells; format: cell-based, Toxoplasma gondii; conditions: for Selective Index (SI): IC50 in IEC-6 cells/IC50 in T. gondii-infected IEC-6 cells; for IC50: Toxoplasma gondii, read-out: IC50 in T. gondii
Procedure: (§1) Anti-T. gondii activity and cytotoxicity of indole derivatives in vitro were evaluated by MTT assay (Solarbio, Beijing, China) using a slightly modified version of the procedure of Shang et al.. IEC-6 cells were seeded onto the 96-well plates (2 × 10^3/well) for 24 h to obtain the full monolayer, and then the host cells were infected with T. gondii (parasite: cell = 3:1) in complete medium. After 24 h, cells were washed to remove any extra parasites and then incubated with different concentrations (20, 200, 500 and 1000 μm) of […]. […] After 24 h of treatment, MTT solution was added directly to the culture wells and then incubated for 4 h at 37 °C. The optical absorbance was measured at a wavelength of 548 nm using a microplate reader (SpectraMax M2, Molecular Devices, Sunnyvale, CA, USA). Giemsa staining was used to observe the changes in cell morphology and the proliferation of T. gondii-infected cells. IEC-6 (1 × 10^5 cells/well) was inoculated into 24-well plates containing round coverslip, and after the cells were attached to the wall, T. gondii (3 × 10^5 cells/well) was added to infect the cells for 3 h. After the culture medium was discarded, PBS was added to remove the uninvaded tachyzoites. […] After discarding the supernatant, the cells were washed with PBS and completely aspirated, and then fixed by adding 0.5 mL of methanol for 3 min. Giemsa staining solution was added and shaken slightly to make the staining uniform. Coverslips were rinsed with distilled water to replace the staining solution, and finally, the slices were sealed with neutral gum and air-dried.

[2] = Small intestine histology and pathology scoring of T. gondii-infected mice; format: in vivo; conditions: 100 mg/kg oral once a day for 6 days
From the text: (§2) For the in vivo study, KM female mice were divided into groups consisting of six animals each and then intraperitoneally injected with 2 × 10^3 tachyzoites. […] On the last day, heart blood samples were collected after anesthesia to separate the serum, and after mice were sacrificed by cervical dislocation, mice were dissected to obtain organs and tissues. The tachyzoites were harvested from mice peritoneal cavities to determine the level of tachyzoite proliferation. The peritoneal fluid was collected twice; the first time, it was centrifuged at 500 rpm for 10 min, then the supernatant was centrifuged at 2500 rpm for 20 min, discarded, and the worm precipitate was collected at the bottom, and mixed with an appropriate amount of physiological saline. A total of 10 μL of T. gondii suspension was mixed with 10 μL of 4% Trypan blue staining solution in a 1.5 mL centrifuge tube.
The histology research includes apparent pathological change score, H&E staining and histopathological scores of tissue, as shown in Table 4 and Table 5. In detail, the obtained small intestine tissues were fixed in formalin solution and embedded in paraffin wax after gradual dehydration with different concentrations of ethanol. The paraffin fast was sectioned to a thickness of 5 μm, rehydrated and stained with hematoxylin and eosin, respectively, and finally permeabilized with xylene and sealed with neutral gum. A light microscope was used to observe and collect pictures, and the degree of damage to the small intestinal tissues was assessed according to Chiu’s six-grade scale.

[3] = test system: small intestine of mice with T. gondii infection; test: Small intestine and serum biochemical parameters (GSH, MDA, NO, DAO) of T. gondii-infected mice; format: in vivo; conditions: 100 mg/kg oral once a day for 6 days
From the text: as §2
The GSH was measured according to the method in [58]. The intestine homogenate was mixed with half volume trichloroacetic acid (20%, w/v) and centrifuged at 4000 rpm for 10 min. Then, phosphate buffer (phosphate 0.3 mol/L, pH 7.5) and 5,5-dithio-bis-(2-nitrobenzoic acid) (0.04%, w/v) were added to the separated supernatant and mixed thoroughly. After 5 min at room temperature, the absorbance was measured at 412 nm.
MDA was measured by the standard method with minor modifications. The small intestine homogenate supernatant was mixed with thiobarbituric acid (0.5%, w/v) and heated in boiling water bath for 1 h, then cooled quickly and centrifuged at 6000 rpm for 10 min; the absorbance of pink colored supernatant was measured at 532 nm. Tetraethoxypropane replaced the intestine homogenate in the standard sample.
(§3) The Greiss method was used to determine the NO content in small intestine tissues and cells. The above small intestine tissue homogenate or IEC-6 cell supernatant was centrifuged at 4 °C and 1500 rpm for 15 min, and the absorbance was measured at 540 nm by adding equal amounts of Griess A and B reagents to the supernatant. The standard used in the NO standard curve was sodium nitrite, and the NO content in the samples was calculated by substituting the absorbance values of the samples into the regression equation of the standard curve.
The DAO evaluation experimental method of Xin Y et al. was adopted, in which mouse heart blood was taken from a 1.5 mL centrifuge tube and centrifuged at 4 °C and 3000× g for 10 min, and the upper layer of serum was taken for measurement. Another 1.5 mL tube was taken and 600 μL of phosphate buffer, 20 μL of horseradish peroxidase, 20 μL of dianisidine dihydrochloride hydrochloride, and 20 μL of 1,5-pentanediamine hydrochloride were added. After that, 100 μL of serum samples to be tested was added, mixed well and heated at 37 °C for 18 h. The absorbance was measured at 436 nm. […]. A total of 100 μL of distilled water was used in the blank tube instead of serum, and the standard used in the standard curve was diamine oxidase. The absorbance value of the experimental samples was substituted into the regression equation of the standard curve to calculate the content of DAO in the serum samples.

T. gondii [4] = test: In vivo anti-T. gondii activity, peritoneal tachyzoite count by Trypan Blue; parameters: species or system Toxoplasma gondii; conditions: 100 mg/kg oral once a day for 6 days; for Number of Tachyzoites: peritoneal cavity of KM female mice, i.p. 2 × 10^3 tachyzoites, Toxo 12.28 ± 0.39; for Inhibition Rate: mice peritoneal T. gondii, (untreated group − treated group)/untreated group × 100%
From the text: as §2

IEC-6 cells = test: MTT cytotoxicity assay in IEC-6 cells; format: cell-based; conditions: Rattus norvegicus, read-out: IC50 in IEC-6 Cells
Procedure: as §1

[5] = test system: IEC-6 cells with T. gondii infection; test: NO level of T. gondii-infected IEC-6 cells (Griess); format: cell-based; conditions: Griess method, cell supernatant; compared with Toxo group
Procedure: as §3

T. gondii [6] = test: Giemsa staining: cell infection rate and intracellular tachyzoites in IEC-6 cells; format: cell-based, Toxoplasma gondii; conditions: IEC-6 cells infected 3 h, drug 12 h at the IC50 value of the cells; for cell infection rate: Toxo group 49.2%; for number of intracellular tachyzoites: Toxo group 254
Procedure: as §1

[7] = Small intestine function of T. gondii-infected mice (weight, food utilization, carmine excretion); format: in vivo; conditions: 100 mg/kg oral once a day for 6 days
Procedure: On the last day, heart blood samples were collected after anesthesia to separate the serum, and after mice were sacrificed by cervical dislocation, mice were dissected to obtain organs and tissues. The tachyzoites were harvested from mice peritoneal cavities to determine the level of tachyzoite proliferation. The peritoneal fluid was collected twice; the first time, it was centrifuged at 500 rpm for 10 min, then the supernatant was centrifuged at 2500 rpm for 20 min, discarded, and the worm precipitate was collected at the bottom, and mixed with an appropriate amount of physiological saline. […] Mouse food intake and body weight were recorded daily for six days during the experiment and were used to record growth performance data. At the end of the experiment, body weight gain, food intake and food utilization of mice were calculated as Equation (1). […] A solution containing 3% carmine dye and 0.5% carboxymethyl cellulose was prepared. On the fifth day of T. gondii infection, each mouse was transferred to a separate cage, with the bottom of the cage completely covered with white paper to facilitate the detection of cochineal in the feces after red feces were eliminated. […] During the experimental period, the mice were free to move around, and eat and drink freely without any external interference, as described.

[8] = MTT, concentration required to reduce T. gondii-infected IEC-6 cell growth by 50%, 24 h treatment
[9] = MTT, concentration required to reduce IEC-6 cell growth by 50%, 24 h treatment

Row | Structure (SMILES) | Selective Index (SI) (T. gondii [1]) | IC50 (T. gondii [1]; [8]) [µM] | intestinal barrier damage induced by T. gondii infection (histology, H&E) [2] | DAO level in serum [3] | MDA level in small intestine tissue [3] | NO level in small intestine tissue [3] | Number of Tachyzoites (T. gondii [4]) | IC50 (IEC-6 cells; [9]) [µM] | NO level of IEC-6 cells with T. gondii infection [5] | cell infection rate (T. gondii [6]) [%] | IC50 (T. gondii [1]; IEC-6, 24 h) [µM] | IC50 (IEC-6 cells; IEC-6, 24 h) [µM] | apparent pathological damage score (intestine apparent pathology scoring) [2] | GSH level in small intestine tissue [3] | Inhibition Rate (T. gondii [4]) [%] | number of intracellular tachyzoites (T. gondii [6]) | MDA level in small intestine tissue ([3]; 100 mg/kg) | NO level in small intestine tissue ([3]; 100 mg/kg) | food utilization efficiency of mice with T. gondii infection [7] | weight increment of mice with T. gondii infection [7]
1 | N#CCc1cn(C=O)c2ccccc12 [A1, 1-Formyl-1H-indole-3-acetonitrile] | 1.2 | 342 | demonstrate potential in ameliorating intestinal barrier damage | mitigate the elevated levels | surpassed that of the positive control drug, Spy | mitigate the elevated levels | 8.17 ± 0.84 ×10^6 | 417 | significantly decreased the release of intracellular nitric oxide | 26.0 | – | – | – | – | – | – | – | – | – | –
2 | NCCc1cn(C=O)c2ccccc12 [A2, 1-Formyl-1H-indole-3-ethanamine] | – | – | – | – | – | – | – | – | – | – | > 1000 | > 1000 | – | – | – | – | – | – | – | –
3 | O=Cc1c[nH]c2ccccc12 [A3, Indole-3-carboxaldehyde] | 1.3 | 675 ± 8.3 | most effective, surpassing the control drug Spy in efficacy | more significant | effective inhibition of the MDA increase | less pronounced compared to the other derivatives | 8.22 ± 1.49 ×10^6 | 869.2 ± 4 | lowest NO release levels; also recorded: significantly decreased the release of intracellular nitric oxide | 15.0 | – | – | significantly lower apparent pathological damage score compared to Spy | significantly higher than that observed with the positive control drug, Spy | 33.3 | more effective than Spy | – | – | – | –
4 | O=Cc1c[nH]c2ncc(Br)cc12 [A4, 5-bromo-1H-pyrrolo[2,3-b] pyridine-3-carbaldehyde] | 1.0 | 995.7 ± 4.9 | – | – | – | – | – | 960.3 ± 2.5 | – | – | – | – | – | – | – | – | – | – | – | –
5 | O=Cc1c(Cl)[nH]c2ccccc12 [A5, 2-Chloro-1H-indole-3-carbaldehyde] | 1.1 | 564 ± 6.9 | demonstrate potential in ameliorating intestinal barrier damage | mitigate the elevated levels | effective inhibition of the MDA increase | mitigate the elevated levels | 9.56 ± 0.92 ×10^6 | 602 ± 9.9 | significantly decreased the release of intracellular nitric oxide | 20.3 | – | – | – | – | 22.2 | more effective than Spy | – | – | – | –
6 | COC(=O)c1cn(C=O)c2ccccc12 [A6, 1-formyl-1H-indole-3-carboxylic acid methyl ester] | 0.9 | – | – | – | – | – | – | – | – | – | 742 ± 10.5 | 633 ± 9.8 | – | – | – | – | – | – | – | –
7 | Clc1cc2ccccc2[nH]1 [A7, 2-Chloro-1H-indole] | 1.0 | 287 ± 6.1 | – | – | – | – | – | 283.7 ± 2.6 | – | – | – | – | – | – | – | – | – | – | – | –
8 | Cn1cc(C=O)c2ccccc21 [A8, 1-Methyl-indole-3-carbaldehyde] | 1.1 | 571 ± 7.4 | demonstrate potential in ameliorating intestinal barrier damage | mitigate the elevated levels | – | – | 8.92 ± 0.51 ×10^6 | 650 ± 7.9 | significantly decreased the release of intracellular nitric oxide | 20.5 | – | – | – | – | – | more effective than Spy | effective inhibition of the MDA increase; also recorded: slightly outperformed A9 | mitigate the elevated levels; also recorded: slightly outperformed A9 | – | –
9 | Cn1c(-c2ccccc2)c(C=O)c2ccccc21 [A9, 1-Methyl-2-phenylindole-3-carbaldehyde] | 1.1 | 366 ± 8.8 | demonstrate potential in ameliorating intestinal barrier damage | – | effective inhibition of the MDA increase | mitigate the elevated levels | 8.83 ± 0.39 ×10^6 | 408.4 ± 3.5 | lowest NO release levels; also recorded: significantly decreased the release of intracellular nitric oxide | 18.0 | – | – | – | – | 28.1 | more effective than Spy | – | – | enhanced food utilization efficiency | did not affect this parameter, except for derivative A9
10 | c1ccc2[nH]ccc2c1 [Indole, indole] | 1.0 | – | – | – | – | – | 10.33 ± 2.84 ×10^6 | – | – | 32.2 | 921.2 ± 5 | 939.6 ± 5.4 | – | – | – | – | – | – | – | –
